Reference: US20260207605A1, “KRAS G12D INHIBITORS AND USES THEREOF” (Abbisko Therapeutics Co., Ltd., priority 2022, published 2026)
Read-outs that look alike come from different tables or passages of the source.

Key:
[1] = biological target: KRAS^G12D/cRAF (Homo sapiens, UniProt P01116, G12D); test: KRAS G12D/cRAF binding test (Alphalisa); settings: His-tagged KRAS G12D with GMPPNP, GST-tagged cRAF
Method: The compound was dissolved in 100% DMSO at a starting concentration of 5 mM and diluted in DMSO with a 3-fold serial dilution method for a total of 8 concentration points. 1 μL of the compound or DMSO at each concentration point was added into 99 μL of the experimental buffer to obtain 10× stock solution.
(§1) The ratio for each compound concentration was calculated from the signal of the DMSO control group contained in each assay plate and the Alphalisa signal in each compound well. The compound concentration required for inhibitory concentration at 50% (IC50) was determined using a four-parameter logarithmic dose-response equation by testing the concentration of the compound and the value of the ratio. The endpoint value (IC50) of the reference compound was assessed in each experiment as a quality control measure. If the endpoint value is within three times the expected value, the experiment may be considered acceptable.

[2] = test system: HPAC; test: Anti-proliferative 2D CTG assay, HPAC; type: cell-based; settings: Homo sapiens, 96 h, HPAC cells, 4 days incubation, read-out: HPAC cell IC50
Method: (§2) 1.1 Day 0 Cell Culture and Plating
(§3) Cells in a logarithmic growth phase were harvested and the cells were counted by using a […]. Cell viability was tested by using a trypan blue exclusion method to ensure that cell viability was above 90%. The cell concentration was adjusted to the desired final density, and 90 μL of cell suspension was added to a 96-well plate, then the cells were incubated overnight at 37° C., 5% CO2 and 95% humidity.
(§4) 10 μL PBS was added to each well of the TO plate containing cells. The CTG reagent was thawed and the plate was equilibrated to room temperature for 30 minutes. The CTG solution of 50 µL/well was added to each well. The cells were lysed by shaking on an orbital shaker for 5 minutes. The plate was left at room temperature for 20 minutes to stabilize the luminescence signal. The TO fluorescence signal value was read.
(§5) From the 10 mM stock solution, with a ratio of 1:5, 9-point serial dilutions were performed. The 10× medium containing the compound was transferred into corresponding wells of the 96 wells. The final maximum compound concentration was […] and the final DMSO concentration was 0.1%. The 96-well plate was placed in a 37° C. incubator and incubated for 4 days.
(§6) 50 μL/well of detection reagent (CTG) was added to the cells, and the signal was read in an Envision machine.
as §1, with “The percent inhibition (%) at” for “The ratio for”, “signal in” for “signal of”, “the HPE and ZPE” for “the DMSO”, “control wells and the fluorescence signal in the individual compound wells included” for “control group contained”, “assay plate. […]” for “assay plate and the Alphalisa signal in each compound well.”, “the inhibition percentage value.” for “the value of the ratio.”

[3] = Pharmacokinetic experiment in mice (single PO or IV administration); settings: male, ICR, mouse, plasma
From the text: The purpose of this trial is to study the pharmacokinetic behavior of some compounds of the present invention, and the administration method is: single oral administration (PO) or intravenous administration (IV) to ICR mice.
ICR mice male N=9 original source: Shanghai Sippr-Bk Lab Animal Co., Ltd.
The compounds were weighed and dissolved in the corresponding solution (0.5% CMC+1% tween water solution or 10% PG+10% Solutol®+80% pH3 citrate buffer). The mixture was then shaken well and sonicated to prepare a 1 mg/mL stock solution. Nine mice were orally administered at a dose of 10 mg/kg or intravenously administered at a dose of 2 mg/kg after an overnight fast.
About 90 μL of blood was collected via the submandibular vein per time point, heparin sodium anticoagulant was added, the sample was placed on ice after collection, and plasma was centrifuged within 1 hour (centrifugation conditions: 8,000 rpm, 6 minutes, 2-8° C.). The blood collection timepoints were 0, 0.25, 0.5, 1, 2, 4, 6, 8 and 24 h. The samples were stored in a −20° C. refrigerator.
The plasma sample was 40 μL, 160 μL of ice-cold acetonitrile containing internal standard was added, vortexed for 3 minutes, and centrifuged at 11,000 rpm for 5 minutes. 100 μL of the supernatant was taken and added to 100 μL of water, 5 μL of the sample was taken and injected into LC/MS/MS for analysis.

[4] = test system: LS513; test: Anti-proliferative 2D CTG assay, LS513; type: cell-based; settings: Homo sapiens, LS-513, 96 h, LS513 cells, 4 days incubation, read-out: LS513 cell IC50
Method: as §2, §3, §4, §5, §6
as §1, with “The percent inhibition (%) at” for “The ratio for”, “signal in” for “signal of”, “the HPE and ZPE” for “the DMSO”, “control wells and the fluorescence signal in the individual compound wells included” for “control group contained”, “assay plate. […]” for “assay plate and the Alphalisa signal in each compound well.”, “the inhibition percentage value.” for “the value of the ratio.”

[5] = test system: AsPC-1; test: Anti-proliferative 2D CTG assay, AsPC-1; type: cell-based; settings: AsPC-1 cells, 4 days incubation, read-out: AsPC-1 cell IC50
Method: as §2, §3, §4, §5, §6
as §1, with “The percent inhibition (%) at” for “The ratio for”, “signal in” for “signal of”, “the HPE and ZPE” for “the DMSO”, “control wells and the fluorescence signal in the individual compound wells included” for “control group contained”, “assay plate. […]” for “assay plate and the Alphalisa signal in each compound well.”, “the inhibition percentage value.” for “the value of the ratio.”

[6] = test system: AGS; test: Anti-proliferative 2D CTG assay, AGS; type: cell-based; settings: AGS cells, 4 days incubation, read-out: AGS cell IC50
Method: as §2, §3, §4, §5, §6
as §1, with “The percent inhibition (%) at” for “The ratio for”, “signal in” for “signal of”, “the HPE and ZPE” for “the DMSO”, “control wells and the fluorescence signal in the individual compound wells included” for “control group contained”, “assay plate. […]” for “assay plate and the Alphalisa signal in each compound well.”, “the inhibition percentage value.” for “the value of the ratio.”

Chain of KRAS^G12D/cRAF (P01116 1-188 isoform P01116-2 G12D): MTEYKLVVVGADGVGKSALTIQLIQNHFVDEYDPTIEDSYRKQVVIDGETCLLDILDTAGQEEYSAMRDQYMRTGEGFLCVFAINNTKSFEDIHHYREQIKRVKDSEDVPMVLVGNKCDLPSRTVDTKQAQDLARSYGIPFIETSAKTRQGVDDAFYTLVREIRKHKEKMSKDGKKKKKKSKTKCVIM

Compound	IC50 [1] [nM]	IC50 [2] [nM]	IC50 [4] [nM]	IC50 ([6]; Homo sapiens, AGS, 96 h) [nM]	further results
[2H]C([2H])([2H])C([2H])([2H])[C@@]12CC[C@@H](CN(c3nc(OC[C@@]45CCCN4C/C(=C\F)C5)nc4c(F)c(-c5ccc(F)c6sc(N)c(C#N)c56)c(Cl)cc34)C1)N2 (single isomer, unassigned) [Example 361]	7.1	38	40		AUC ([3]; iv, 2 mg/kg): 221 ng·h/mL; Cmax ([3]; iv, 2 mg/kg): 179 ng/mL; half-life ([3]; iv, 2 mg/kg): 13.7 h; AUC ([3]; po, 10 mg/kg): 370 ng·h/mL; Cmax ([3]; po, 10 mg/kg): 164 ng/mL; bioavailability ([3]; po, 10 mg/kg): 33.5%; half-life ([3]; po, 10 mg/kg): 9.6 h
C#Cc1c(F)ccc2cc(O)cc(-c3ncc4c(N5C[C@@H]6CC[C@](CC)(C5)N6)nc(OC[C@@]56CCCN5C/C(=C\F)C6)nc4c3F)c12 [Example 56, 4-(4-((1R,5S)-1-ethyl-3,8-diazabicyclo[3.2.1]octan-3-yl)-8-fluoro-2-(((S,Z)-2-(fluoromethylene)tetrahydro-1H-pyrrolizin-7a (5H)-yl)methoxy)pyrido[4,3-d]pyrimidin-7-yl)-5-ethynyl-6-fluoronaphthalen-2-ol]		2.5	2.6		IC50 [5]: 9.1 nM; IC50 [6]: 0.6 nM
C#Cc1c(F)ccc2cc(O)cc(-c3ncc4c(N5C[C@@H]6CC[C@](C7CCCC7)(C5)N6)nc(OC[C@@]56CCCN5C/C(=C\F)C6)nc4c3F)c12 [Example 75, 4-(4-((1S,5S)-1-cyclopentyl-3,8-diazabicyclo[3.2.1]octan-3-yl)-8-fluoro-2-(((S,Z)-2-(fluoromethylene)tetrahydro-1H-pyrrolizin-7a (5H)-yl)methoxy)pyrido[4,3-d]pyrimidin-7-yl)-5-ethynyl-6-fluoronaphthalen-2-ol]	34.5	93.6	56.1	14.2	
[2H]C([2H])([2H])C([2H])([2H])[C@@]12CC[C@@H](CN(c3nc(OC[C@@]45CCCN4CC(=C)C5)nc4c(F)c(-c5cc(N)cc6ccc(F)c(C#C)c56)ncc34)C1)N2 [Example 357, 4-(4-((1R,5S)-1-(ethyl-d5)-3,8-diazabicyclo[3.2.1]octan-3-yl)-8-fluoro-2-(((S)-2-methylenetetrahydro-1H-pyrrolizin-7a(5H)-yl)methoxy)pyrido[4,3-d]pyrimidin-7-yl)-5-ethynyl-6-fluoronaphthalen-2-amine]		46.9	57.4	23	
[2H]C([2H])([2H])C([2H])([2H])[C@@]12CC[C@@H](CN(c3nc(OC[C@@]45CCCN4C/C(=C\F)C5)nc4c(F)c(-c5cccc6sc(N)c(C#N)c56)c(Cl)cc34)C1)N2 [Example 362, 2-amino-4-(6-chloro-4-((1R,5S)-1-(ethyl-d5)-3,8-diazabicyclo [3.2.1]octan-3-yl)-8-fluoro-2-(((S,Z)-2-(fluoromethylene)tetra-hydro-1H-pyrrolizin-7a(5H)-yl)methoxy)quinazolin-7-yl)benzo [b]thiophene-3-carbonitrile]	27.7	61.8	65.7		
[2H]C([2H])([2H])OC[C@@]12CC[C@@H](CN(c3nc(OC[C@@]45CCCN4C/C(=C\F)C5)nc4c(F)c(-c5cccc6sc(N)c(C#N)c56)c(Cl)cc34)C1)N2 [Example 363, 2-amino-4-(6-chloro-8-fluoro-2-(((S,Z)-2-(fluoromethylene)tetra-hydro-1H-pyrrolizin-7a(5H)-yl)methoxy)-4-((1R,5S)-1-((methoxy-d3)methyl)-3,8-diaza-bicyclo[3.2.1]octan-3-yl)quina-zolin-7-yl)benzo[b]thiophene-3-carbonitrile]	18.6	66.3	82.3		
C#Cc1c(F)ccc2cc(O)cc(-c3ncc4c(N5C[C@@H]6CC[C@](CC)(C5)N6)nc(OC[C@@]56CCCN5C[C@H](F)C6)nc4c3F)c12 [Positive Compound 2, reference compound]		33	59.4	9.2	IC50 ([5]; Homo sapiens, ASPC1, 96 h): 83.3 nM
